Assay results as given in paper PMC11141866, “Pyrimidine depletion enhances targeted and immune therapy combinations in acute myeloid leukemia” (JCI Insight, 2024).
Values joined by “and” are separate entries in the source; they are usually repeats but may differ in a detail not shown here. Identical values can stand only once.

Legend:
[1] = system: Kasumi; assay: MTS proliferation assay, Kasumi; assay type: cell-based; conditions: Homo sapiens, 96 h, read-out: IC50 (MTS proliferation)
Experimental: (§1) A total of 10,000–20,000 cells from different AML lines or 50,000–75,000 cells of primary AML blasts were treated in a 96-well plate for 72 hours or 96 hours at 37°C, 5% CO2. CellTiter 96 Aqueous MTS reagent (Promega) was added to cells followed by a 3-hour incubation at 37°C, 5% CO2. The absorbance was measured at 490 nm using DTX 880 plate reader, and the IC50 was calculated using GraphPad Prism.

[2] = system: OCI-AML3; assay: MTS proliferation assay, OCI-AML3; assay type: cell-based; conditions: Homo sapiens, OCI-AML-3, 96 h, read-out: IC50 (MTS proliferation)
Experimental: as §1

[3] = system: U937; assay: MTS proliferation assay, U937; assay type: cell-based; conditions: Homo sapiens, U-937, 96 h, read-out: IC50 (MTS proliferation)
Experimental: as §1

[4] = system: primary AML patient samples; assay: Flow cytometry CD47 surface expression, primary AML samples; assay type: cell-based, human; conditions: 500nM
Experimental: (§2) Cells were thawed in 50% FBS RPMI and then cultured in StemSpan (StemCell Technologies) media supplemented with human FLT3L, SCF, GM-CSF, G-CSF, IL-3, IL-6, TPO, and EPO cytokines for 7 days (LTC).
(§3) After 72 hours or 7 days of treatment of DHODHi, cells were collected and washed with PBS, blocked with human Fc block (BioLegend), and stained with antibodies for 30 minutes on ice. Antibodies were washed off and cells resuspended in FACS buffer (2% FBS, 2 mM NaN3, Dulbecco’s PBS) for analysis using BD LSRFortessa or Cytek Aurora spectral flow cytometer. Live/dead exclusion was done using LIVE/DEAD Fixable Near-IR (Invitrogen). All antibodies were purchased from BioLegend except CD47, which was purchased from BD Biosciences: CD11b clone M1/70, CD38 clone HIT2, CD14 clone M5E2, CD47 clone B6H12, CD33 clone WM53, CD3 clone UCHT1, CD19 clone HIB19, and CD45 clone HI30.
Supplemental Figure S.8. DHODHi modulates CD47 surface antigen expression. A) Representative flow cytometry overlay histogram plot for CD47 surface expression in MV4-11 cell line following a 72- […]
supplementation (experiment was done five independent times). B) Flow cytometry analysis of CD47 surface expression in primary AML patient samples (n=8-10) treated in vitro for seven days (long term culture, LTC). Data is shown as mean florescent intensity (MFI) of CD47 gated on live CD45+CD3-CD19- cells, error bars indicate mean with 95% confidence interval. C) Representative flow cytometry […]
modulation of CD47 post DHODHi treatment.
(1 picture or pasted object on this page, not shown here)

[5] = system: THP1; assay: MTS proliferation assay, THP1; assay type: cell-based; conditions: Homo sapiens, THP-1, 96 h, read-out: IC50 (MTS proliferation)
Experimental: as §1

[6] = system: MOLM-13; assay: MTS proliferation assay, MOLM-13; assay type: cell-based; conditions: Homo sapiens, MOLM-13, 96 h, read-out: IC50 (MTS proliferation)
Experimental: as §1

[7] = system: primary AML patient samples; assay: Flow cytometry viability, primary AML long-term culture; assay type: cell-based, human; conditions: 500nM
Experimental: as §2, §3
Supplemental Figure S.2. […] A).
Flow cytometry analysis of viable primary AML patient samples (n=10) treated in vitro for seven days
(long term culture, LTC). […]

[8] = system: primary AML samples; assay: Flow cytometry CD38 surface expression, primary AML samples; assay type: cell-based, human; conditions: 500nM
Experimental: as §2, §3

[9] = system: HL-60 disseminated CDX model; assay: HL-60 CDX synergy with decitabine; assay type: in vivo, NCG mice; conditions: Decitabine 0.4 mpk IP (4on/10off), HOSU53 10 mpk p.o. qd, or both; flag 0 = censored at day 82
Experimental: Female 8- to 12-week-old female NCG mice were engrafted with 1 × 10^7 cells via tail vein i.v. injection. At 14 days after engraftment (day 1 of treatment), mice (n = 10/arm) were randomized to receive p.o. qd and i.p. vehicle (p.o. qd 40% HPβCD and 4 on/10 off i.p. PBS), 10 mg/kg HOSU-53, i.p. 0.4 mg/kg decitabine on a 4-day on/10-day off cycle, or their combination till moribundity or end of study day 82.

Question: Which results are given for `Cc1c(-c2ccc(-c3ccccc3F)cc2)nc2ccc(F)cc2c1C(=O)O` [BRQ, brequinar]?
Answer: IC50 [1]: 1.18 µM; IC50 [2]: 0.483 µM; IC50 [3]: 2 µM; CD47 MFI ([4]; Pt.13, DMSO 1665.27): 1311.31; CD47 MFI ([4]; Pt.14, DMSO 585.79): 845.1; CD47 MFI ([4]; Pt.15, DMSO 1002.16): 847.29; CD47 MFI ([4]; Pt.16, DMSO 1349.33): 1999.15; CD47 MFI ([4]; Pt.17, DMSO 334.61): 370.44; CD47 MFI ([4]; Pt.18, DMSO 869.17): 1024.38; CD47 MFI ([4]; Pt.19, DMSO 364.4): 470.75; CD47 MFI ([4]; Pt.20, DMSO 398.54): 499.32; IC50 [5]: 0.899 µM; IC50 [6]: 0.378 µM; % Live (Near-IR negative) ([7]; Pt.13, DMSO 72.92): 74.35%; % Live (Near-IR negative) ([7]; Pt.14, DMSO 68.39): 69.22%; % Live (Near-IR negative) ([7]; Pt.15, DMSO 61.7): 34.7%; % Live (Near-IR negative) ([7]; Pt.16, DMSO 45.99): 44.41%; % Live (Near-IR negative) ([7]; Pt.17, DMSO 29.84): 27.99%; % Live (Near-IR negative) ([7]; Pt.18, DMSO 29.72): 24.94%; % Live (Near-IR negative) ([7]; Pt.19, DMSO 75.66): 72.29%; % Live (Near-IR negative) ([7]; Pt.20, DMSO 67.67): 44.18%; CD38 MFI ([8]; Pt.13, DMSO 803.93): 685.5; CD38 MFI ([8]; Pt.14, DMSO 15.61): 20.07; CD38 MFI ([8]; Pt.15, DMSO 168): 776.17; CD38 MFI ([8]; Pt.16, DMSO 274.9): 196.87; CD38 MFI ([8]; Pt.17, DMSO 1637.55): 2098.18; CD38 MFI ([8]; Pt.18, DMSO 74.26): 85.41; CD38 MFI ([8]; Pt.19, DMSO 997.1): 1760; CD38 MFI ([8]; Pt.20, DMSO 193.57): 223.42

Question: Which “Survival, day of study at event (per animal)” value [9] does the source give for `Nc1ncn([C@H]2C[C@H](O)[C@@H](CO)O2)c(=O)n1` [Decitabine, decitabine, reference compound] here?
Answer: Its value is 40 days and 41 days and 43 days and 45 days and 47 days.
